Data on 24 compounds can be found in PubChem BioAssay AID504335 (Southern Research Specialized Biocontainment Screening …, 2011).

Calls of active or inactive are those of the source. The rule behind the calls is not given here. Bounds are passed on as bounds.

The first experiment has as its system mammalian cell cytotoxicity, viability. Description: dose response, cytotoxicity control for M. tuberculosis inhibitor project, purified and synthesized compounds (AID 504335).
Conditions: not given
One may read the CC50 as the concentration at which the toxic effect on the cells reaches its halfway point. For `S=c1nc[nH]c2nc[nH]c12`, the CC50 is 38.7 µM. Turning to `CCC(C)Nc1ccc(NC(C)CC)cc1` (centres undefined), the CC50 was 14.3 µM. For `Cc1cccc(/C=C/C(=O)c2ccc([N+](=O)[O-])o2)c1`, the CC50 was 20.2 µM. The same measure, in the same setting: the result for `Cc1ccc2c(c1)c(C1=c3ccccc3=NC1=O)c(O)n2C` reads 10.1 µM; that for `CCOC(=O)c1ccc(NC(=O)Cn2ncc(Cl)c(Cl)c2=O)cc1`, 7.71 µM. `CC(=NCc1ccc2c(c1)OCO2)C1=C(O)c2ccccc2C1=O`: the CC50 is > 100 µM (inactive).

Turning to `Oc1ccccc1/C=N/Nc1ccnc(SCc2ccccc2)n1`, the CC50 is 93.8 µM. For `CC(C)NC(=O)c1sc(=S)n2c1[nH]c(=O)c1ccc(C(=O)NCCc3ccc(Cl)cc3)cc12`, the CC50 was 99.9 µM. `COC(=O)c1cc(=O)n(-c2ccc(F)cc2)c(=Nc2ccc(F)cc2)s1`: the CC50 is 25.7 µM. As for `CNc1nc(SCc2ccccc2Cl)nc2c1CCCC2`, the CC50 was 36 µM. Regarding `Cc1ccc2ccc3ccc(C)nc3c2n1`, the CC50 is 58.5 µM. Turning to `O=C(NCC(c1cccs1)N1CCOCC1)c1cc([N+](=O)[O-])cc([N+](=O)[O-])c1` (centres undefined), the CC50 is 96.7 µM.

System in a further experiment: not listed separately
Described as above. Particulars: mammalian cell cytotoxicity, viability; at 100 µM (top of the series).
The term viability denotes a per cent measure of how many cells are alive, often set against a control. For the compound `O=C(/C=C\c1cccs1)N1CCN(Cc2ccc3c(c2)OCO3)CC1`, the viability is 87.7% (inactive). With `O=C(CSc1nc2ccccc2c(=O)[nH]1)NC1CCCCC1`, the viability is 81.8% (inactive). Consider `COC(=O)CCc1nc2c(C#N)c(-c3ccc(Cl)cc3)ccn2n1`, for which the viability was 99.2% (inactive). Regarding `Cc1nc(SCC(=O)NC2CCCCC2)[nH]c(=O)c1C`, the viability is 88.8% (inactive).

Consider `CCOC(=O)COc1ccc(/C=C2\NC(=S)N(CC)C2=O)cc1`, for which the viability was 94.5% (inactive). Turning to `COc1cc(NC(=O)C/C(C)=N/NC(=O)c2ccccn2)c(OC)cc1Cl`, the viability is 92.4% (inactive). Still for that read-out and setting: the result for `CCc1ccc(/C=C2/C(=O)N(C)C(=S)N2CC(=O)OC)s1` reads 92% (inactive).

In the case of `Cc1ccc(NC(=O)C2C3/C=C\CCCCC32)cc1C` (centres undefined), the viability was 87.6% (inactive).

Turning to `COC(=O)C1CC(=O)N(c2ccc(OCc3ccccc3Cl)cc2)C1` (centres undefined), the viability was 90.6% (inactive). `O=C(CSc1nc2ccccc2c(=O)[nH]1)NCc1ccc(Cl)cc1`: the viability was 83% (inactive). As to `COC(=O)C(C)Oc1ccc(-c2nccc(-c3ccccn3)n2)cc1` (centres undefined), the viability was 95.7% (inactive).

In the case of `CCOC(=O)COn1c2c(c3c4no[n+]([O-])c4ccc31)CCCC2`, the viability is 87.8% (inactive).
